Results reported in PubChem BioAssay (NCI).
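Exposure lasted 48 hours, with cells grown in 96-well plates and compounds tested at five concentrations. At the TGI there is no net growth.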

Legend:
Test in all cases: inhibition of tumour cell growth, NCI panel, 48 h
HCT-116 colon = tested on: HCT-116 colon
SF-539 CNS = tested on: SF-539 CNS
HT29 colon = tested on: HT29 colon
BT-549 breast = tested on: BT-549 breast
HOP-92 NSCLC = tested on: HOP-92 NSCLC
MDA-N = tested on: MDA-N
MALME-3M melanoma = tested on: MALME-3M melanoma
A498 renal = tested on: A498 renal
DU-145 prostate = tested on: DU-145 prostate
NCI/ADR-RES ovarian = tested on: NCI/ADR-RES ovarian
K-562 leukemia = tested on: K-562 leukemia
786-0 renal = tested on: 786-0 renal
CCRF-CEM leukemia = tested on: CCRF-CEM leukemia
MDA-MB-231 breast = tested on: MDA-MB-231 breast
HCT-15 colon = tested on: HCT-15 colon
OVCAR-8 ovarian = tested on: OVCAR-8 ovarian
RXF 393 renal = tested on: RXF 393 renal
U251 CNS = tested on: U251 CNS
PC-3 prostate = tested on: PC-3 prostate
LOX IMVI melanoma = tested on: LOX IMVI melanoma
SN12C renal = tested on: SN12C renal
MCF7 breast = tested on: MCF7 breast
KM12 colon = tested on: KM12 colon
T-47D breast = tested on: T-47D breast
SF-295 CNS = tested on: SF-295 CNS
OVCAR-3 ovarian = tested on: OVCAR-3 ovarian
EKVX NSCLC = tested on: EKVX NSCLC
TK-10 renal = tested on: TK-10 renal
HS 578T breast = tested on: HS 578T breast
CAKI-1 renal = tested on: CAKI-1 renal
SF-268 CNS = tested on: SF-268 CNS
UACC-62 melanoma = tested on: UACC-62 melanoma
A549 NSCLC = tested on: A549 NSCLC
SNB-19 CNS = tested on: SNB-19 CNS
SK-OV-3 ovarian = tested on: SK-OV-3 ovarian
SK-MEL-28 melanoma = tested on: SK-MEL-28 melanoma
SW-620 colon = tested on: SW-620 colon
NCI-H226 lung = tested on: NCI-H226 lung
NCI-H460 lung = tested on: NCI-H460 lung
M14 melanoma = tested on: M14 melanoma
SNB-75 CNS = tested on: SNB-75 CNS
MDA-MB-435 = tested on: MDA-MB-435
HOP-62 NSCLC = tested on: HOP-62 NSCLC
HCC-2998 colon = tested on: HCC-2998 colon
SK-MEL-5 melanoma = tested on: SK-MEL-5 melanoma
UO-31 renal = tested on: UO-31 renal
ACHN renal = tested on: ACHN renal
OVCAR-5 ovarian = tested on: OVCAR-5 ovarian
OVCAR-4 ovarian = tested on: OVCAR-4 ovarian
UACC-257 melanoma = tested on: UACC-257 melanoma
HL-60(TB) leukemia = tested on: HL-60(TB) leukemia
MOLT-4 leukemia = tested on: MOLT-4 leukemia
NCI-H522 lung = tested on: NCI-H522 lung
IGROV1 ovarian = tested on: IGROV1 ovarian
NCI-H23 lung = tested on: NCI-H23 lung
COLO 205 colon = tested on: COLO 205 colon
RPMI-8226 leukemia = tested on: RPMI-8226 leukemia
SK-MEL-2 melanoma = tested on: SK-MEL-2 melanoma

Measured: TGI

O=C(O)C(F)(F)C(F)(F)C(F)(F)C(F)(F)C(F)(F)C(F)(F)C(F)(F)C(F)(F)F
58.7 µM: HOP-92 NSCLC
62.4 µM: HL-60(TB) leukemia
92.4 µM: K-562 leukemia
86.6 µM: SK-OV-3 ovarian
not listed: RPMI-8226 leukemia | SK-MEL-2 melanoma
> 100 µM: all other assays above

Nc1ncnc2c1ccn2COC(CO)CO
not listed: COLO 205 colon
> 100 µM: all other assays above
